Laboratory results reported in patent publication US11572590B2, “Methods for evaluating tumor cell spheroids using 3D microfluidic cell culture device” (Dana-Farber Cancer Institute, Inc., priority 2017, dated 2023).
Read-outs that look alike come from different tables or passages of the source.

Experiments:
Test in all cases: SelectScreen Kinase Profiling, single point inhibition and IC50 for off-target kinases
Assay type in all cases: biochemical
[1] = target: off-target kinases (Homo sapiens, UniProt P36507); conditions: MAP2K2 (MEK2)
Chain of off-target kinases (Homo sapiens, UniProt P36507) (P36507 whole entry): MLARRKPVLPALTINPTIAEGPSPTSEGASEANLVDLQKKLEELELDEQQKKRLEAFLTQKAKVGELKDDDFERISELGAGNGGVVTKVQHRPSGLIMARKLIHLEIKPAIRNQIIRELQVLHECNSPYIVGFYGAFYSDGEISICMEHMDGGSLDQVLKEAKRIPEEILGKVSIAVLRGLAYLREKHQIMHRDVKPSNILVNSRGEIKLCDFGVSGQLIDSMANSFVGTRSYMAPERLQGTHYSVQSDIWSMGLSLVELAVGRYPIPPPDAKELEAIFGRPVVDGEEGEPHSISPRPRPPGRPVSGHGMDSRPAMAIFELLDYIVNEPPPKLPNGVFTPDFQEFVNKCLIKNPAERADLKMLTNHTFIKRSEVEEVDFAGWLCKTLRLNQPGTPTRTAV

[2] = target: off-target kinases (Homo sapiens, UniProt Q9P289); conditions: MST4, ZLYTE, ATP Km app
Chain of off-target kinases (Homo sapiens, UniProt Q9P289) (Q9P289 whole entry): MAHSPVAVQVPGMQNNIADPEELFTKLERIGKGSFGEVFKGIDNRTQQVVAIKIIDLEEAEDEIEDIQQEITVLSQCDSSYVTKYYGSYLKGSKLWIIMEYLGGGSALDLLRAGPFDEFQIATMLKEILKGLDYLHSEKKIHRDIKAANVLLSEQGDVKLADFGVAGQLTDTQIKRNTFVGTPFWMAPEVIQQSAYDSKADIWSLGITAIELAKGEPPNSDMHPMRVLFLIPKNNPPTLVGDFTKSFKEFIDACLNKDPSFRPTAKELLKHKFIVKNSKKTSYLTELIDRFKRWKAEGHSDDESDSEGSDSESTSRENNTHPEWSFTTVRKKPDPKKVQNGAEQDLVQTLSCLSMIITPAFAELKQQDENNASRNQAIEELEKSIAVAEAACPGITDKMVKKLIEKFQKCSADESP

[3] = target: off-target kinases (Homo sapiens, UniProt Q8IU85); conditions: CAMK1D (CaMKI delta), ZLYTE, ATP Km app
Chain of off-target kinases (Homo sapiens, UniProt Q8IU85) (Q8IU85 whole entry): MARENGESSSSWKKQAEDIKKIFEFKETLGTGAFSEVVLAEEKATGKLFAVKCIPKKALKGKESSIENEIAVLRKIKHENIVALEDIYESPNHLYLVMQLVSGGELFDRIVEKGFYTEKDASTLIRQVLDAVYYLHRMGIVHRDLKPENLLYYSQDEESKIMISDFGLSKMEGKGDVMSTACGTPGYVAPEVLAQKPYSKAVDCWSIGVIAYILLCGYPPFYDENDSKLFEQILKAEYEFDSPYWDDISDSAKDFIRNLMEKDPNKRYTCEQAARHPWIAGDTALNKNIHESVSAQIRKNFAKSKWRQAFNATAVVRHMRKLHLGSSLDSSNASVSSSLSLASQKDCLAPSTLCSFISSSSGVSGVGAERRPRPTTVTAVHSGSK

[4] = target: T1, off-target kinases (Homo sapiens, UniProt Q12866); conditions: MERTK (cMER), ZLYTE, ATP Km app
T1 sequence (Q12866 21-999): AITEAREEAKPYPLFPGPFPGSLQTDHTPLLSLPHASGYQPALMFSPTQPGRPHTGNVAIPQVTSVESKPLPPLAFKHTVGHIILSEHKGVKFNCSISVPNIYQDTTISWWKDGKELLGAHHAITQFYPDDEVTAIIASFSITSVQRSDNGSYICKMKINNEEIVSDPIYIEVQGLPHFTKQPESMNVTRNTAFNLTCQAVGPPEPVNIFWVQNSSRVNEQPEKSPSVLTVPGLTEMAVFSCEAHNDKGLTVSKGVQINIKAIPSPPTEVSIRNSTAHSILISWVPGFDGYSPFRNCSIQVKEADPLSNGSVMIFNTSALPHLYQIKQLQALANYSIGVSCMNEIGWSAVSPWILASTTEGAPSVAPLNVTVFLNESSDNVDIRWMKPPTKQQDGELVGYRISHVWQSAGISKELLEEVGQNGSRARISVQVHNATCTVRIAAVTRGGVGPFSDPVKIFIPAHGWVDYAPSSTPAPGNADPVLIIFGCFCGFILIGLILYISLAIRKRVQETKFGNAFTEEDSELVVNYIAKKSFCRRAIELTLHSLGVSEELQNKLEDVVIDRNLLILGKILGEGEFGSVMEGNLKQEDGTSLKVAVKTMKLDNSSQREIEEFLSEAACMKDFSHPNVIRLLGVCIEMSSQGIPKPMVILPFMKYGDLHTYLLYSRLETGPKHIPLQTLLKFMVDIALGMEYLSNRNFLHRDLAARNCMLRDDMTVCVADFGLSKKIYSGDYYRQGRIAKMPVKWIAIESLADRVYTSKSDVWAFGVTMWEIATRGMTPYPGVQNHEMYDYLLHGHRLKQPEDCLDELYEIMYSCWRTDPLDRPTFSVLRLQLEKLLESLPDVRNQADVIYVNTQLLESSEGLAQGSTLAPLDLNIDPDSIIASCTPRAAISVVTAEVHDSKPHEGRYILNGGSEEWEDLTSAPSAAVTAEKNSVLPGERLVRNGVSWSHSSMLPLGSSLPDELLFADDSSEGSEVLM

[5] = target: off-target kinases (Homo sapiens, UniProt P49336); conditions: CDK8/cyclin C, LanthaScreen Binding
Chain of off-target kinases (Homo sapiens, UniProt P49336) (P49336 whole entry): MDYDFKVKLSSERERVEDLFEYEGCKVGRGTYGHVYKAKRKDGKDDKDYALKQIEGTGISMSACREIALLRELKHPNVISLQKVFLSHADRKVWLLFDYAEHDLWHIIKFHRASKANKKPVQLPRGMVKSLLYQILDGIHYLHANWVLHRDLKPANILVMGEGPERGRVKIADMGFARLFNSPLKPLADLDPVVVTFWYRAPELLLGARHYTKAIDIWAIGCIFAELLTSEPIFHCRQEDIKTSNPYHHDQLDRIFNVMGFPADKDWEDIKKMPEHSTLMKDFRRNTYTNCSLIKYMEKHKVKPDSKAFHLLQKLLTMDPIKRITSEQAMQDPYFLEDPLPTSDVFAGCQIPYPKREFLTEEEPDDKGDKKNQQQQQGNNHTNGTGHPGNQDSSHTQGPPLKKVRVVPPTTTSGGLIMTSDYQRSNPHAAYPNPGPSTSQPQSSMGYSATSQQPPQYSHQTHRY

**Q.** `N#Cc1cc(-c2ncnc(Nc3ccc(N4CCN(C5COC5)CC4)cc3)n2)ccc1OC1CCOCC1` [Compound 1, 5-(4-((4-(4-(oxetan-3-yl)piperazin-1-yl)phenyl)amino)-1,3,5-triazin-2-yl)-2-((tetrahydro-2H-pyran-4-yl)oxy)benzonitrile] was tested. Which inhibition ([1]; LanthaScreen Binding, read-out: % Inhibition 1) did it give?
**A.** The inhibition was 5%.

**Q.** And the inhibition ([1]; LanthaScreen Binding, read-out: % Inhibition 2)?
**A.** Its inhibition is 5%.

**Q.** And the inhibition ([1]; LanthaScreen Binding, read-out: % Inhibition Avg)?
**A.** The inhibition was 5%.

**Q.** And the inhibition ([1]; ZLYTE, ATP 100, read-out: % Inhibition 1)?
**A.** Its inhibition is 13%.

**Q.** What about the inhibition ([1]; ZLYTE, ATP 100, read-out: % Inhibition 2) of the same compound?
**A.** The inhibition was 2%.

**Q.** What about the inhibition ([1]; ZLYTE, ATP 100, read-out: % Inhibition Avg) of the same compound?
**A.** Its inhibition is 8%.

**Q.** And the inhibition ([2]; read-out: % Inhibition 1)?
**A.** The inhibition was 2%.

**Q.** And the inhibition ([2]; read-out: % Inhibition 2)?
**A.** Its inhibition is 3%.

**Q.** What about the inhibition ([2]; read-out: % Inhibition Avg) of the same compound?
**A.** Its inhibition is 2%.

**Q.** What about the inhibition ([3]; read-out: % Inhibition 1) of the same compound?
**A.** Its inhibition is 12%.

**Q.** What about the inhibition ([3]; read-out: % Inhibition 2) of the same compound?
**A.** The inhibition was 13%.

**Q.** And the inhibition ([3]; read-out: % Inhibition Avg)?
**A.** Its inhibition is 12%.

**Q.** What about the inhibition ([4]; read-out: % Inhibition 1) of the same compound?
**A.** Its inhibition is 27%.

**Q.** And the inhibition ([4]; read-out: % Inhibition 2)?
**A.** The inhibition was 22%.

**Q.** What about the inhibition ([4]; read-out: % Inhibition Avg) of the same compound?
**A.** Its inhibition is 24%.

**Q.** And the inhibition ([5]; read-out: % Inhibition 1)?
**A.** The inhibition was 0%.

**Q.** What about the inhibition ([5]; read-out: % Inhibition 2) of the same compound?
**A.** The inhibition was 3%.

**Q.** What about the inhibition ([5]; read-out: % Inhibition Avg) of the same compound?
**A.** Its inhibition is 1%.
